Experimental data: PubChem BioAssay (NCI)
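Following 48 hours of exposure in 96-well plates, responses at five concentrations were used to interpolate endpoints linearly. GI50: concentration for 50% inhibition of growth. TGI denotes the concentration required for complete inhibition of growth.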

These compounds were tested on HCT-116 colon (assay: NCI anticancer screen, dose series, 48 h).
For `Cc1ccc(S(=O)OC2C3CC4CC(C3)CC2C4)cc1` (centres undefined), the TGI was > 100 µM. For `CN(C)c1ccc(/C=C2\C=Cc3ccccc32)cc1`, the TGI was > 100 µM. `Cc1c(C2=C(c3cn(C)c4ccccc34)C(=O)NC2=O)c2ccccc2n1C` was tested, and the GI50 was 1.38 µM and the TGI was > 25 µM. In the case of `COC(=O)C(C)(C)N=CN(C)C`, the TGI is reported as > 100 µM. For `Cc1cc(N(CCC#N)CCC#N)ccc1/C=C1/N=C(c2ccccc2)N(N)C1=O`, the TGI was > 100 µM. With `CN1CCN(CC(O)COc2c(Br)c(Br)c(Br)c3c2OC(C)(C)C3)CC1` (centres undefined) the GI50 was 5.16 µM and the TGI was > 100 µM. In the case of `CCOC1=C2N=C(Cc3ccccc3F)N=C2C(=O)c2ccccc21`, the TGI is reported as > 100 µM. For `CNS(=O)(=O)NNS(=O)(=O)c1ccc(Cl)cc1`, the TGI was > 100 µM. `C=C1CCC2[C@@H](CCC3[C@]2(C)CCC[C@]3(C)C(=O)OC)[C@@H]1CC=O` (some centres undefined) showed a TGI of 30.7 µM. `CCCCCCCCCCCCCP(=O)(O)NCC(N)=O` was tested, and the TGI was > 100 µM. `CN1COc2c(n(C)c(=O)[nH]c2=O)C1` was tested, and the TGI was > 100 µM. With `CC1(C)OCC(C(O)C2OC(C)(C)OC2/C=N\O)O1` (centres undefined) the TGI was > 100 µM. With `CCCCCCN(N)C(=O)CC#N` the TGI was > 100 µM. Compound `O=C(O)/C(Cl)=C(\Cl)C(=O)Nc1ccc(Cl)c(Cl)c1Cl` has a TGI of 28.1 µM. With `COc1ccc(C(Cl)=C(c2ccc(OCCN(C)C)cc2)c2ccc(OCCN(C)C)cc2)cc1` the TGI was 2.68 µM. For `CC1(C)C2CCC13CS(=O)(=O)N1O[C@]13C(=O)O2` (some centres undefined), the TGI was > 100 µM.

These compounds were tested on NCI-H23 lung (assay: NCI anticancer screen, dose series, 48 h).
`COc1ccc(/C=N/NC(=O)Cn2c(-c3ccc(S(C)(=O)=O)cc3)nc3cc(Cl)ccc32)cc1` was tested, and the GI50 was 2.39 µM and the TGI was > 50 µM. For `CC1CN1c1c(C(=O)/C=C/c2ccccc2)c(-c2ccccc2)nn(C)c1=O` (centres undefined), the TGI was 31.8 µM. Compound `c1ccc(P(=Nc2ccccc2N=P(c2ccccc2)(c2ccccc2)c2ccccc2)(c2ccccc2)c2ccccc2)cc1` has a TGI of 2.25 µM. With `COCCOCOc1ccc(OCOCCOC)c2c1C(=O)c1ccccc1C2=O` the TGI was > 100 µM. With `CCO/C=C1\N=C(c2ccccc2Br)OC1=O` the TGI was > 100 µM. `O=P1(Oc2ccccc2)C(c2ccccc2)C(c2ccccc2)=NN1c1ccccc1` (centres undefined) gave a TGI of 51.9 µM. With `COc1ccc(C2[C@@H](Cl)C(=O)N2c2cc(OC)c(OC)c(OC)c2)cc1Cl` (some centres undefined) the GI50 was 0.428 µM and the TGI was > 100 µM. With `CCOC(=O)C(=O)Nc1cc(Cl)ccc1Cl` the TGI was > 100 µM. `N#Cc1ccc(N=Cc2c([O-])ccc3ccccc23)cc1.[C-]#[O+].[C-]#[O+].[Ir]` gave a GI50 of 10.5 µM and a TGI of 24.4 µM. For `[N-]=[N+]=C1C(=O)C2CC3CC(C2)CC1C3`, the TGI was > 100 µM. In the case of `COC(=O)CC1NC(=O)C1C1(C)OCCO1` (centres undefined), the TGI is reported as > 100 µM. Compound `COC(CN1C=C(Sc2ccccc2)CC1)OC` has a TGI of 69.7 µM. In the case of `CN(C)CCC(/C=C/c1ccccc1)=N\Nc1ccc(Cl)cc1Cl`, the TGI is reported as 31.4 µM. `COc1ccc(C=O)c(NC(=O)C(C)C)c1` was tested, and the TGI was > 100 µM. `Cc1cc2c(c(C(=O)O)c1C)-c1cccc(F)c1C2=O` was tested, and the TGI was > 100 µM. With `Cc1ccc(S(=O)OC2C3CC4CC(C3)CC2C4)cc1` (centres undefined) the TGI was > 100 µM. `CN(C)c1ccc(/C=C2\C=Cc3ccccc32)cc1` was tested, and the TGI was > 100 µM. `COc1cc2nc(NCCCCCNC(=O)c3ccco3)nc(N)c2cc1OC` was tested, and the TGI was > 100 µM. In the case of `Cc1c(C2=C(c3cn(C)c4ccccc34)C(=O)NC2=O)c2ccccc2n1C`, the GI50 is reported as 13.2 µM and the TGI is reported as > 25 µM. `C/C=C(\C)c1cc(O)c(C)c2c1Oc1cc(O)c(Cl)c(C)c1C(=O)O2` showed a TGI of 38.6 µM. `COC(=O)C(C)(C)N=CN(C)C` was tested, and the TGI was > 100 µM. For `Cc1cc(N(CCC#N)CCC#N)ccc1/C=C1/N=C(c2ccccc2)N(N)C1=O`, the TGI was > 100 µM. `CN1CCN(CC(O)COc2c(Br)c(Br)c(Br)c3c2OC(C)(C)C3)CC1` (centres undefined) showed a GI50 of 14 µM and a TGI of 34.1 µM. In the case of `CCOC1=C2N=C(Cc3ccccc3F)N=C2C(=O)c2ccccc21`, the TGI is reported as > 100 µM. In the case of `CNS(=O)(=O)NNS(=O)(=O)c1ccc(Cl)cc1`, the TGI is reported as > 100 µM. In the case of `C=C1CCC2[C@@H](CCC3[C@]2(C)CCC[C@]3(C)C(=O)OC)[C@@H]1CC=O` (some centres undefined), the TGI is reported as 66.5 µM. For `CCCCCCCCCCCCCP(=O)(O)NCC(N)=O`, the TGI was > 100 µM. In the case of `CN1COc2c(n(C)c(=O)[nH]c2=O)C1`, the TGI is reported as > 100 µM. In the case of `CC1(C)OCC(C(O)C2OC(C)(C)OC2/C=N\O)O1` (centres undefined), the TGI is reported as > 100 µM. With `CCCCCCN(N)C(=O)CC#N` the TGI was > 100 µM. `O=C(O)/C(Cl)=C(\Cl)C(=O)Nc1ccc(Cl)c(Cl)c1Cl` gave a TGI of 33.2 µM. For `COc1ccc(C(Cl)=C(c2ccc(OCCN(C)C)cc2)c2ccc(OCCN(C)C)cc2)cc1`, the TGI was 3.98 µM. With `CC1(C)C2CCC13CS(=O)(=O)N1O[C@]13C(=O)O2` (some centres undefined) the TGI was > 100 µM.

The compounds below were run on LOX IMVI melanoma (assay: NCI anticancer screen, dose series, 48 h).
For `COc1ccc(/C=N/NC(=O)Cn2c(-c3ccc(S(C)(=O)=O)cc3)nc3cc(Cl)ccc32)cc1`, the GI50 was 1.4 µM and the TGI was > 50 µM. `CC1CN1c1c(C(=O)/C=C/c2ccccc2)c(-c2ccccc2)nn(C)c1=O` (centres undefined) showed a TGI of 31.1 µM. `c1ccc(P(=Nc2ccccc2N=P(c2ccccc2)(c2ccccc2)c2ccccc2)(c2ccccc2)c2ccccc2)cc1` was tested, and the TGI was 13.9 µM. In the case of `COCCOCOc1ccc(OCOCCOC)c2c1C(=O)c1ccccc1C2=O`, the TGI is reported as > 100 µM. `CCO/C=C1\N=C(c2ccccc2Br)OC1=O` was tested, and the TGI was > 100 µM. `O=P1(Oc2ccccc2)C(c2ccccc2)C(c2ccccc2)=NN1c1ccccc1` (centres undefined) was tested, and the TGI was 31.6 µM. Work on `COc1ccc(C2[C@@H](Cl)C(=O)N2c2cc(OC)c(OC)c(OC)c2)cc1Cl` (some centres undefined) yielded a GI50 of 0.163 µM and a TGI of 20.8 µM. Compound `N#Cc1ccc(N=Cc2c([O-])ccc3ccccc23)cc1.[C-]#[O+].[C-]#[O+].[Ir]` has a GI50 of 9.88 µM and a TGI of 22.4 µM. `[N-]=[N+]=C1C(=O)C2CC3CC(C2)CC1C3` was tested, and the TGI was > 100 µM. In the case of `COC(=O)CC1NC(=O)C1C1(C)OCCO1` (centres undefined), the TGI is reported as > 100 µM. In the case of `COC(CN1C=C(Sc2ccccc2)CC1)OC`, the TGI is reported as 56.3 µM. In the case of `COc1ccc(C=O)c(NC(=O)C(C)C)c1`, the TGI is reported as > 100 µM. `Cc1cc2c(c(C(=O)O)c1C)-c1cccc(F)c1C2=O` was tested, and the TGI was > 100 µM. With `Cc1ccc(S(=O)OC2C3CC4CC(C3)CC2C4)cc1` (centres undefined) the TGI was > 100 µM. In the case of `CN(C)c1ccc(/C=C2\C=Cc3ccccc32)cc1`, the TGI is reported as > 100 µM. In the case of `Cc1c(C2=C(c3cn(C)c4ccccc34)C(=O)NC2=O)c2ccccc2n1C`, the GI50 is reported as 5.3 µM and the TGI is reported as > 25 µM. Work on `C/C=C(\C)c1cc(O)c(C)c2c1Oc1cc(O)c(Cl)c(C)c1C(=O)O2` yielded a TGI of 31.6 µM. For `COC(=O)C(C)(C)N=CN(C)C`, the TGI was > 100 µM. With `Cc1cc(N(CCC#N)CCC#N)ccc1/C=C1/N=C(c2ccccc2)N(N)C1=O` the TGI was > 100 µM.
